In patent US9303076B2, “Cell-penetrating peptides and uses thereof” (Hoffmann-La Roche Inc., priority 2010, dated 2016):

Key:
human Aha1 mRNA = experiment: siRNA transfection screening (siAha1 vs siGL3 control, bDNA assay of Aha1/GAPDH mRNA); type: cell-based
Procedure: For the quantification of cellular mRNA levels bDNA (branched DNA) assays were performed which enable the detection of individual mRNA levels. To this end, a defined number of the cells to be analyzed was seeded into 96-well plates and allowed to attach over night. On the next day, the cells were transfected with siRNA.
After further 24 hours, the mRNA species were quantified using the QuantiGene Plex 2.0 assay kit according to the manufacturers instructions (Affymetrix Inc., Santa Clara, Calif., USA). In brief, cell lysates were transferred to a capture plate in the presence of a gene-specific probe set and incubated at 53° C. over night. After washing, the wells were sequentially incubated at 53° C. with an amplifier agent and an alkaline phosphatase (AP)-linked label probe with a washing step in between. Subsequently, the luminescent AP substrate dioxitane was added and incubated for 30 min at 53° C. Luminescence was assayed using an InfiniteF200 luminescence reader (Tecan Austria GmbH, Groding, Austria).
In order to analyze the potential CPPs for their ability to transfect siRNA into mammalian cells an increasing peptide concentration (from 1 μM to 20 μM) was employed along with a constant siRNA concentration (100 nM). This range of peptide concentrations was used as it had been shown that positively charged peptides such as TAT are internalized into cells in ranges up to 10 μM and remain in intracellular membrane compartments without significant egress into the cytosol (Duchardt, F. et al. (2007) Traffic 8, 848-866). […] A concentration of 10 nM siRNA is in the saturation range as determined in control experiments using the DharmaFECT transfection reagent (Dharmacon, Inc., Lafayette, Colo., USA; data not shown).
The siRNA oligonucleotides employed were directed against human Aha1 mRNA (Panaretou, B. et al. (2002) Mol. Cell 10, 1307-1318) or against luciferase mRNA as a control.
Complexes of siRNA and the respective peptides were formed in OptiMEM medium and incubated for 15 minutes at room temperature. The cells were incubated in the presence of the complexes for three hours in OptiMEM. After washing, the cells were incubated for further 21 or 45 hours in normal growth medium. Thereafter, the levels of Aha1 mRNA and a reference mRNA (i.e. GAPDH mRNA) were measured by means of a bDNA assay. These assays were performed with cells that were transfected with siAHA1 and with a control siRNA (siGL3, luciferase), respectively.
As a measure for specific RNAi, the reduction of Aha1 mRNA levels relative to GAPDH mRNA levels was compared in siAHA1-transfected cells and siGL3-transfected cells. Specific siRNA mediated transfection causes a reduction in Aha1/GAPDH mRNA values in siAhA1-compared to siGL3-transfected cells. FIG. 3 depicts the screening readout of these assays: the Aha1/GAPDH mRNA values of non-transfected control cells were set to 100% (for each assay), and the Aha1/GAPDH mRNA values of siAha1- or siGL3-transfected cells were expressed relative to that. For this normalized data set, the differences between the respective Aha1/GAPDH mRNA levels of siAha1- and siGL3-transfected cells were determined. Specific peptides caused a significant reduction in siAha1 transfection without reducing siGL3 transfections, which results in positive difference values. The more pronounced these values are, the more specific RNAi is observed (cf. FIG. 3).

siRNA duplex = experiment: gel-shift assay of peptide/siRNA complex formation; type: binding; conditions: ethidium bromide staining
Procedure: Gel-shift assays were performed by mixing […] siRNA duplex with the respective peptides in a given molar ratio in water. The complexes were formed for 1 hour at 37° C. and analyzed on a 2.5% agarose gel with ethidium bromide (run: 40 minutes at 125 V). For proteinase K treatment, 1 μl proteinase K was added to a standard reaction as indicated above.
Mechanisms that may explain transfection functionalities of charged peptides such as TAT or protamine include the formation of complexes between positively charged peptides and negatively charged nucleic acids. Such complexes enable peptide-mediated membrane-interacting and/or endosome escape functionalities to transfer the complexed nucleic acids into the cytosol of cells (Law, M. et al. (2008) Biotechnol. Prog. 24, 957-963) In order to address whether the above mechanism may apply to the NTRN-derived peptide as well gel-shift assays were performed (cf. FIG. 8). To this end, siRNA was co-incubated with increasing concentrations of peptide, followed by analyses of their migration pattern via gel electrophoresis.

MCF7 cells [1] = experiment: FACS analysis of internalization of FITC-labeled peptides; type: cell-based, human; conditions: FITC-labeled peptide 1, 5, 10 μM; 3 hours at 37° C.; proteinase K treated
Procedure: For FACS analysis, MCF7 cells (ATCC number HTB-22) were detached by 15 min incubation in accutase (an enzyme solution having proteolytic and collagenolytic activities; commercially available from various suppliers). After washing in FACS buffer (PBS containing 5% FCS), the cells were seeded in a 96 well, rounded bottom multi-well plate (Cat. No. 3799, Corning Inc., Corning, N.Y. USA) in a final density of 3×10^5 cells/ml and used immediately. The cells were incubated in the respective presence of 1 μM, 5 μM and 10 μM FITC-labeled peptides in OptiMEM medium for 3 hours at 37° C. Afterwards, the cells were washed in FACS buffer and incubated in proteinase K (0.02 mg/ml) containing buffer for 30 minutes at 37° C. The cells were washed twice and analyzed with the FACSCanto II (BD Biosciences; San Jose, Calif., USA) using the FITC channel.
For determining the internalization behavior of the CPPs identified in the screening procedures FITC-labeled derivates of said peptides (at 1 μM, 5 μM, and 10 μM, respectively) were analyzed by means of FACS. The following peptides were used: NRTN as a transfecting peptide, WNT16 as a non-transfecting peptide, FALL as a toxic peptide and TAT as a reference (positive control) (cf. FIG. 12). MCF7 cells were incubated in the presence of the fluorescent peptide derivatives for 3 hours at 37° C. in OptiMEM. Subsequently, the cells were treated with proteinase K for 30 minutes at 37° C. to remove surface bound peptides, and thus to ensure the monitoring only of internalized peptides. The cells were then washed in PBS and analyzed by FACS.

MCF7 cells [2] = experiment: growth inhibition/toxicity (CellTiter-Glo viability, GAPDH mRNA levels); conditions: MCF7 cells; peptide 1 μM to 20 μM
Procedure: MCF7 cells were seeded at a density of 15.000 cells per well in 96 well plates. The cells were incubated for 24 hours at 37° C., 5% CO2 and 85% humidity in RPMI 1640 medium supplemented with 10% FCS (fetal calf serum) and L-glutamine. For functional assays, the cells were washed in OptiMEM medium and RPMI 1640 was replaced with OptiMEM (all reagents were purchased from Invitrogen Corporation, Carlsbad, Calif., USA). Complexes of siRNAs and peptides were formed by incubation of 100 nM siRNA with the indicated peptide concentrations in OptiMEM for 30 minutes at room temperature. The complexes were added to the cells and incubated for 3 hours. Subsequently, OptiMEM was replaced with normal RPMI 1640 growth medium. The cells were incubated for further 21 hours for generating bDNA lysates, and for further 45 hours for performing CellTiter-Glo or CytoTox-Glo assays (cf. below).
In order to measure the number of living cells the CellTiter-Glo Luminescent Cell Viability Assay (Promega Corporation, Madison, Wis., USA) was used according to the protocol of the manufacturer. The cells were incubated for 48 hours in the presence of peptides and siRNAs. Subsequently, the cells are lysed, and a luminescent signal proportional to the amount of ATP present is generated which, in turn, is proportional to the number of living cells present. Luminescence was analyzed in an InfiniteF200 luminescence reader.
Based on this observation, GAPDH mRNA levels were used as a general readout for toxicity: an average measurement of 100% GAPDH mRNA relative to the medium control was considered as non-toxic, values between 99% and 70% as moderate toxic, and values of less than 70% as toxic (cf. FIG. 3).
Similarly, peptides resulting in GAPDH mRNA values >70% were classified as “nontoxic”, whereas peptides that caused a reduction of GAPDH mRNA to lesser values were termed “toxic”.

[3] = system: MCF-7 human breast cancer cells; experiment: cell viability/apoptosis after 24 h exposure to pro-apoptotic peptides and CPP fusions; type: cell-based; conditions: MCF-7 cells; for cell viability / cytotoxicity due to induction of apoptosis: 20 μM; for cell viability / induction of apoptosis: various concentrations
Procedure: (§1) MCF-7 human breast cancer cells were incubated for 24 h in the presence of various concentrations of NRTN (squares), Nur (circles), and NurNRTN (triangles) peptides. The respective amino acid sequences are given in the bottom panel. The experimental approach for assessing cell viability (and thus induction of apoptosis) was the same as in FIG. 3.
as §1, with “4E-BP1 (circles), TAT4E-BP1” for “NRTN”, “(squares),” for “(squares), Nur (circles),”, “NRTN4E-BP1” for “NurNRTN”, “peptides (top panel). […]” for “peptides.”
Luminescence was analyzed in an InfiniteF200 luminescence reader.
Then, the cells were treated with a luminogenic peptide substrate in order to measure dead-cell protease activity, which is released from cells that have lost membrane integrity. […] The luminescence of this assay therefore represents dead cells. The 96 well plates were then analyzed in an InfiniteF200 luminescence reader.
Despite its proven ability to convert BCL-2 into a pro-apoptotic molecule, addition of the latter peptide (i.e. “Nor/Nur”; SEQ ID NO: 72) to cancer cells, even in high concentrations, is not sufficient to induce apoptosis, as the cellular target protein is located in the cytoplasm, but the peptide per se cannot effectively penetrate through the cell membrane to reach the target. In brief, MCF-7 breast cancer cells were incubated in the presence of this peptide for 24 h.
(§2) Subsequently, it was evaluated whether the NurNRTN fusion peptide is capable of penetrating cellular membranes and thereby induces pro-apoptotic activity within cells. MCF-7 human breast cancer cells were used as a model. The experimental approach was as described above (cf. Example 1). […] This effect was dose dependent: cytotoxicity increased with increasing concentrations of peptide.
as §2, with “NRTN4E-BP1” for “NurNRTN”

## GRKKRRQRRRPPQ (Human immunodeficiency virus 1; TAT peptide sequence) [reference compound]
Human Aha1 mRNA; 20 μM, threshold value of FIG. 3
  difference of Aha1/GAPDH for luciferase siRNA and Aha1/GAPDH for Aha1 siRNA (Transfection): 18%
siRNA duplex
  complex formation with siRNA: forms complexes with the siRNA molecules

## FALLGDFFRKSKEKIGKEFKRIVQRIKDFLRNLVPRTES (FALL39 Var.1 peptide sequence; listed as Homo sapiens)
Human Aha1 mRNA; 5 μM peptide
  specific reduction of Aha1 mRNA at lower concentrations: clear and specific reduction of Aha1 mRNA
Human Aha1 mRNA; 10 μM or higher
  specific Aha1 mRNA reduction (relative to GAPDH mRNA) where toxicity is pronounced: only inconclusive evidence for a specific Aha1 mRNA reduction
Human Aha1 mRNA; NRTN: at lower non-toxic concentrations
  transfection efficacy compared with TAT / control peptides: inferior transfection efficacy than TAT
MCF7 cells [1]
  internalization into cells (FACS, FITC channel): strong accumulation
MCF7 cells [2]
  cell viability / growth inhibition / toxicity (CellTiter-Glo, GAPDH mRNA levels): significant toxicity

## CC[C@H](C)[C@H](NC(=O)[C@H](CCCNC(=N)N)NC(=O)[C@@H](NC(=O)CNC(=O)[C@H](CCCNC(=N)N)NC(=O)[C@H](CCCNC(=N)N)NC(=O)[C@H](CCCNC(=N)N)NC(=O)[C@H](CCC(N)=O)NC(=O)[C@H](CCCNC(=N)N)NC(=O)[C@H](CCCNC(=N)N)NC(=O)[C@H](CCCCN)NC(=O)[C@H](CCCCN)NC(=O)[C@H](CCCNC(=N)N)NC(=O)CNC(=O)[C@H](Cc1ccc(O)cc1)NC(=O)CCOCCOCCOCCNC(=O)[C@@H](N)CS)[C@@H](C)O)C(=O)N[C@H](C(=O)N[C@@H](Cc1ccc(O)cc1)C(=O)N[C@@H](CC(=O)O)C(=O)N[C@@H](CCCNC(=N)N)C(=O)N[C@@H](CCCCN)C(=O)N[C@@H](Cc1ccccc1)C(=O)N[C@@H](CC(C)C)C(=O)N[C@@H](CCSC)C(=O)N[C@@H](CCC(=O)O)C(=O)N[C@@H](CS)C(=O)N[C@@H](CCCNC(=N)N)C(=O)N[C@@H](CC(N)=O)C(=O)N[C@@H](CO)C(=O)N1CCC[C@H]1C(=O)N[C@H](C(=O)N[C@H](C(=O)O)[C@@H](C)O)C(C)C)[C@@H](C)CC [TAT4E-BP1, reference compound]
[3]
  cell viability / cytotoxicity due to induction of apoptosis: clear evidence for reduction in cell viability and cytotoxicity

## PROK2: candidate peptide displaying the highest similarity with TAT (LTRKNNFGNGRQERRKRKRSKRKKEVPFFG; PROK2 peptide sequence; listed as Homo sapiens)
Human Aha1 mRNA; MCF7 cells, 100 nM siRNA, peptide 1 μM to 20 μM
  siRNA transfection activity (specific Aha1 mRNA reduction relative to GAPDH mRNA): did not show detectable transfection activity

## CC[C@H](C)[C@H](NC(=O)[C@H](CCCNC(=N)N)NC(=O)[C@@H](NC(=O)CNC(=O)[C@H](CCCNC(=N)N)NC(=O)[C@H](CCCNC(=N)N)NC(=O)[C@H](CCCNC(=N)N)NC(=O)[C@H](CCC(N)=O)NC(=O)[C@H](CCCNC(=N)N)NC(=O)[C@H](CCCNC(=N)N)NC(=O)[C@H](CCCCN)NC(=O)[C@H](CCCCN)NC(=O)[C@H](CCCNC(=N)N)NC(=O)CNC(=O)[C@H](Cc1ccc(O)cc1)NC(=O)CCOCCOCCOCCNC(=O)[C@@H](N)CS)[C@@H](C)O)C(=O)N[C@H](C(=O)NCC(=O)N[C@@H](CC(=O)O)C(=O)NCC(=O)N[C@@H](CCCCN)C(=O)N[C@@H](Cc1ccccc1)C(=O)NCC(=O)N[C@@H](CCSC)C(=O)N[C@@H](CCC(=O)O)C(=O)N[C@@H](CS)C(=O)N[C@@H](CCCNC(=N)N)C(=O)N[C@@H](CC(N)=O)C(=O)N[C@@H](CO)C(=O)N1CCC[C@H]1C(=O)N[C@H](C(=O)N[C@H](C(=O)O)[C@@H](C)O)C(C)C)[C@@H](C)CC [TATinact4E-BP1, reference compound]
[3]
  cell viability / cytotoxicity due to induction of apoptosis: completely inactive

## GAAEAAARVYDLGLRRLRQRRRLRRERVRAGTRIIGDGKFGMECRNSPVT (inactive NRTN4E-BP1 peptide sequence) [NRTNinact4E-BP1]
[3]
  cell viability / induction of apoptosis: inactive

## GAAEAAARVYDLGLRRLRQRRRLRRERVRAGTRIIYDRKFLMECRNSPVT [NRTN4E-BP1]
[3]
  potency compared to TAT-fused counterpart: significantly higher potency
  cell viability / induction of apoptosis: remarked cytotoxicity

## FSRSLHSLLVDL (C-terminal Nor1 peptide sequence; listed as Homo sapiens) [Nor/Nur, reference compound]
[3]
  cell viability / induction of apoptosis: No reduction in cell viability or induction of apoptosis was observed

## GTRIIYDRKFLMECRNSPVT [4E-BP1, reference compound]
[3]
  cell viability / induction of apoptosis: No reduction in cell viability or induction of apoptosis was observed
